# Results from PubChem BioAssay (NCI).
#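 96-well plates; 48 h exposure; 5 concentrations. Endpoints by linear interpolation between flanking doses. Not reached: highest tested concentration assigned. GI50: concentration for 50% inhibition of growth. TGI: total growth inhibition.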
# Key:
# Experiment in all cases: NCI anticancer screen, dose series, 48 h
# SNB-19 CNS = system: SNB-19 CNS
# NCI-H23 lung = system: NCI-H23 lung
# SK-MEL-28 melanoma = system: SK-MEL-28 melanoma
# RPMI-8226 leukemia = system: RPMI-8226 leukemia
# MALME-3M melanoma = system: MALME-3M melanoma
# DU-145 prostate = system: DU-145 prostate
# MCF7 breast = system: MCF7 breast
# PC-3 prostate = system: PC-3 prostate
# CAKI-1 renal = system: CAKI-1 renal
# SR leukemia = system: SR leukemia
Structure (SMILES),GI50 (SNB-19 CNS) [µM],TGI (SNB-19 CNS) [µM],GI50 (NCI-H23 lung) [µM],TGI (NCI-H23 lung) [µM],GI50 (SK-MEL-28 melanoma) [µM],TGI (SK-MEL-28 melanoma) [µM],GI50 (RPMI-8226 leukemia) [µM],TGI (RPMI-8226 leukemia) [µM],GI50 (MALME-3M melanoma) [µM],TGI (MALME-3M melanoma) [µM],GI50 (DU-145 prostate) [µM],TGI (DU-145 prostate) [µM],GI50 (MCF7 breast) [µM],TGI (MCF7 breast) [µM],GI50 (PC-3 prostate) [µM],TGI (PC-3 prostate) [µM],GI50 (CAKI-1 renal) [µM],TGI (CAKI-1 renal) [µM],GI50 (SR leukemia) [µM],TGI (SR leukemia) [µM]
Cc1cc(C2CC(O)C(CO)O2)c(Br)cc1Br (configuration not stated),> 100,> 100,> 100,> 100,> 100,> 100,85.8,> 100,> 100,> 100,> 100,> 100,> 100,> 100,> 100,> 100,> 100,> 100,,
COc1ccc(N2CCN(c3nc(-c4ccccn4)nc4sc5c(c34)CCCCCC5)CC2)cc1,,,16.9,> 100,> 100,> 100,3.74,> 100,,,27.9,> 100,3.15,> 100,3.31,> 100,5.4,> 100,3.18,> 100
c1ccc2cc(Cn3c(-c4cccc5ccccc45)[n+](Cc4ccc5ccccc5c4)c4c5ccccc5c5ccccc5c43)ccc2c1,0.318,1.62,0.248,1.15,,,0.101,0.861,0.285,1.45,0.413,1.68,0.244,1.2,0.158,1.53,,,,
COC1C[C@H](O[C@@H]2C[C@H](O[C@@H]3C[C@H](O[C@@H]4C(=O)c5c(cc6cc(O[C@H]7C[C@@H](O[C@H]8C[C@@H](O)[C@H](O)C(C)O8)[C@H](O)C(C)O7)c(C)c(O)c6c5O)C[C@H]4C(OC)C(=O)[C@@H](O)[C@@H](C)O)OC(C)[C@H]3O)OC(C)[C@@H]2O)OC(C)[C@@H]1O (some centres not stated),0.101,> 32.5,0.0899,0.695,,,,,0.0861,0.437,0.125,> 32.5,0.0493,> 32.5,0.123,> 32.5,8,> 32.5,0.0406,> 32.5
Cc1cc(NCCCCCCCCNc2cc(C)nc3cc(N(C)C)ccc23)c2ccc(N(C)C)cc2n1,,61.6,,15.2,,4.48,,17.2,,,,,,,,,,72.1,,43.9
COc1ccc(NC(=O)CC2SC(=Nc3ccc(Cl)cc3C)NC2=O)c([N+](=O)[O-])c1 (configuration not stated),,> 100,,> 100,,> 100,,> 100,,> 100,,,,,,,,> 100,,> 100
Clc1ccc(Nc2nnc(COc3ccccc3)c3ccccc23)cc1,3.2,12,1.56,7.87,2.84,7.23,1.37,6.96,1.38,7.3,2.65,10.5,1.18,6.07,1.3,10.1,,,1.23,11.2
Oc1ccccc1-c1cnnc(-c2ccccc2O)c1,,,,,,88.3,,51.2,,64.7,,,,,,,,65.2,,75.1
O=C(NNC(=O)/C(=C/c1cccc([N+](=O)[O-])c1)NC(=O)c1ccccc1)Nc1ccc(Cl)cc1,,30.8,,30.3,,30.8,,38.9,,30,,,,,,,,40.2,,28.1
[N-]=[N+]=NCCCn1c2c(c3ccccc3c1=O)C(=O)c1cc3c(cc1-2)OCO3,,,,,,,> 100,> 100,,,76,> 100,0.817,> 100,> 100,> 100,,,0.157,> 100
CCCCCCCC(=O)[O-].N.N.N.N.N.[Co+3].[O-][Cl+3]([O-])([O-])[O-],> 100,> 100,> 100,> 100,> 100,> 100,> 100,> 100,> 100,> 100,,,,,,,,,,
Cc1cc(S(=O)(=O)Nc2nc3ccccc3s2)c(SCc2ccccc2)cc1Cl,28.2,> 100,13.8,26.7,21.9,52.7,9.25,37.2,,,15.5,36.9,31,> 100,13.5,28.8,4.12,17.6,18.3,58
C/C(COc1ccccc1)=N\NC(N)=S,,,,> 100,,> 100,,> 100,,> 100,,,,,,,,> 100,,> 100
CCN(CC(O)COc1ccc2c(c1)[n+]([O-])nc(N)[n+]2[O-])C(C)=O (configuration not stated),,> 100,,> 100,,> 100,,> 100,,,,> 100,,> 100,,> 100,,> 100,,> 100
O=C1/C(=C/c2ccc(C(=O)O)cc2)CNC/C1=C\c1ccc(C(=O)O)cc1,,,,> 100,,> 100,,> 100,,> 100,,,,,,,,,,> 100
COc1cc(/C=C/[N+](=O)[O-])cc(OC)c1,8.49,22.1,1.85,4.37,2.75,7.29,1.85,4.61,3.29,10.4,1.97,4.03,1.39,3.61,2.94,8.38,,,1.14,5.45
O=Cc1cc2sc(C=O)cc2s1,,> 100,,> 100,,,,> 100,,> 100,,,,,,,,> 100,,> 100
CCCCCCCCCCCCCC(=O)OCC1OC(=O)C(O)C1O (configuration not stated),,> 100,,> 100,,> 100,,> 100,,> 100,,,,,,,,> 100,,> 100
Fc1ccc(Nc2ccnc(N3CCN(c4ccnc5cc(Cl)ccc45)CC3)n2)cc1,3.99,> 100,,,3.27,12.9,2.19,6.22,,,3.96,55.1,2.36,8.26,1.73,8.33,1.83,5.3,2.61,8.76
